# Test results published in patent publication US7662767B2, “Polynucleotide intercalator interceptors and inhibitors” (Materials Evolution and Development USA, Inc., priority 2000, dated 2010).
# Tests used:
# Type in all cases: binding
# [1] = tested on: apChromatin (depurinated chicken erythrocyte nuclear chromatin); assay: Acridine orange staining after acid hydrolysis of dsDNA to apurinic acid, fluorescence microscopy
# Experimental: Depurination of dsDNA within the nuclear chromatin of chicken erythrocytes was accomplished by using a modification of the Feulgen method (Feulgen and Rossenbeck, 1924). Specifically, the nucleated chicken erythrocyte slide preparations were rinsed in a 1 N solution of HCl at room temperature for 60 seconds. This was followed by placement of the slide in a pre-heated (55° C.) solution of 1 N HCl for 10 minutes under static conditions followed by several rinses in distilled water at room temperature. Slides were allowed to dry at room temperature then stained with AO at two different concentrations, one at 5 mM and the other at 10 μM for 15 min and 2 min, respectively. The depurination of DNA was expected to remove the site on the DNA polymer where AO intercalation can occur.
# Solutions of AO were prepared at 5 mM and 10 μM concentrations in distilled water. […] Processed slides were stored in the dark then read and photomicrographs taken (Zeiss Model 63 Microscope, 1600 ASA Kodak film) soon after removal from the dark to avoid photobleaching.
# In the example shown in Table 4-1, the chicken erythrocytes were smeared and dried on a microscope slide prior to exposure to two different concentrations of AO (10 μM and 5 mM), rinsed with distilled water, and allowed to dry. Erythrocytes were examined with fluorescence microscopy and the color of the nuclei recorded. […]
# herring sperm dsDNA = assay: Acridine orange titrated with dsDNA, absorbance; details: AO-DNA
# Source text: Experiments were undertaken to characterize the interaction of AO with DNA over a range of DNA base pairs (bp) to AO ratios in the absence of, and in the presence of, a physiological concentration of NaCl. […] The example shown in FIG. 3-6 is a dsDNA bp: AO ratio of selected spectra denoting important transitions within the titration series are denoted with bolder lines. Some of the spectral series is not shown to simplify the data presentation. At bp: AO ratios between 0.0 and 0.75, prevalent peaks occur at 8abs of 468 nm and 492 nm. […] The absorbance spectra from bp: AO ratios above 0.75 denote a definitive red-shift in absorbance with the simultaneous creation of two distinct peaks, one at 475 nm and the other at 503 nm. With continued additions of aliquots of DNA, the absorbance peak near 468 nm is still apparent while the initial main absorbance peak at 492 nm is minimally detectable. […] Additionally, at bp:AO ratios of about 1.72. The absorbance peak near λabs 503 nm increased in amplitude with each additional aliquot of DNA. […] The association constant was calculated from a plot of delta absorbance values at 504 nm versus DNA concentration (see inset FIG. 3-7). The DNA concentrations ranged from 30:M to 170:M.
# [2] = AO-CAF complex, spectrofluorometry λex 485 nm / λem 530 nm; details: AO [2 μM], CAF [1-20 μM]
# Experimental: Spectrofluorometric analysis was performed at an AO concentration of 2 μM to determine the effect of CAF and a physiological concentration of NaCl on the fluorescence spectra of AO. CAF was added over a series of CAF:AO molecular ratios ranging from 2500:1 to 0.5:1 and the fluorescence intensity determined at λem 530 nm and 635 nm. The fluorescence intensity was again determined following the addition of NaCl to a final concentration 150 mM and pH 7.0 to each test well containing both AO and CAF.
# The data in FIG. 3-5A depicts the mean fluorescence values at λem 530 nm of 2 μM AO with CAF in the absence of, and in the presence of, 150 mM NaCl over a range of CAF to AO molecular ratios from 0.5 to 10.0 (1 μM to 20 μM CAF). The example shown in FIG. 3-5A is a plot of fluorescence intensity of AO excited at λex 485 nm and monitored at λem 530 nm versus CAF concentration to show the effect of CAF and NaCl on the fluorescence of AO and the formation of the AO-CAF complex. Solutions of 2 μM AO were analyzed using spectrofluorometric techniques in the presence of various concentrations of CAF with and without addition of NaCl [150 mM]. […] However at the CAF concentration of 5 mM (molecular ratio 2,500:1) there was a significant change in the mean fluorescence intensity with the value going from 1,245±53 for CAF and AO alone to 1,150±34 with the addition of 150 mM NaCl. […]
Compound,Fluorescent Color ([1]; AO 10 μM),Fluorescent Color ([1]; AO 5 mM),"K ± S.D. (herring sperm dsDNA; Absorbance (504 nm), AO [3 μM], DNA [5-170 μM], hydrochloride)","K ± S.D. (herring sperm dsDNA; Absorbance (504 nm), AO [3 μM], DNA [5-170 μM], listed as AO-DNA, hydrochloride)","K ± S.D. (herring sperm dsDNA; Absorbance, AO [0.1-3 μM], DNA [100 μM])","K ± S.D. (herring sperm dsDNA; Absorbance, AO [0.8-3.4 μM], DNA [20 μM])",K ± S.D. ([2]; Fluorescence plus NaCl 150 mM),"K ± S.D. ([2]; Fluorescence, absence of NaCl)"
"CN(C)c1ccc2cc3ccc(N(C)C)cc3nc2c1.Cl [AO, 3,6-bis[dimethylamino]acridine hydrochloride]",No Color,Red,"37,660±431 M^−1","37,660 ± 431 M^−1","33,510 ± 285 M^−1","31,960 ± 316 M^−1",,
"Cn1c(=O)c2c(ncn2C)n(C)c1=O [1,3,7-trimethyl xanthine (caffeine), 1,3,7-trimethyl xanthine]",,,,,,,216 ± 20 M⁻¹,254 ± 27 M⁻¹
